From patent US8163795B2, “Chroman derivatives, medicaments and use in therapy” (Marshall Edwards, Inc., priority 2004, dated 2012)
Where two headings read alike, the source gives them in different places.

How the values were obtained:
[1] = test system: Neonatal foreskin fibroblasts (NFF); test: Proliferation assay (MTT), normal cell toxicity; format: cell-based, Human; conditions: read-out: IC50
Protocol: (§1) The normal cell line NFF (neonatal foreskin fibroblasts) was a sift from Dr. Peter Parsons (Queensland Institute of Medical Research). RK (rabbit kidney) cells were obtained from Miller Whalley (Macquarie University). Both cell lines were cultured in RPMI supplemented with 10% FCS(CSL, Australia), penicillin (100 U/ml), streptomycin ([…]), L-glutamine (2 mM) and sodium bicarbonate (1.2 g/L), and cultured at 37° C. in a humidified atmosphere of 5% CO2.
(§2) IC50 values were determined for each cell line. Cells were seeded in 96-well plates at an appropriate cell density as determined from growth kinetics analysis and cultured for 5 days in the absence and presence of the test compounds. Cell proliferation was assessed after the addition of 20 μl of 3-4,5 dimethylthiazol-2,5-diphenyl tetrazolium bromide (MTT, 2.5 mg/ml in PBS, Sigma) for 3-4 hrs at 37° C. according to manufacturer's instructions. IC50 values were calculated from semi-log plots of % of control proliferation on the y-axis against log dose on the x-axis.

rabbit kidney cells (RK) = test: Proliferation assay (MTT), normal cell toxicity; format: cell-based; conditions: read-out: IC50
Protocol: as §1, §2

[2] = test system: CP70 ovarian cancer cell line; test: Proliferation assay (MTT); format: cell-based
[3] = test system: SKOV-3 ovarian cancer cell line; test: Proliferation assay (MTT); format: cell-based; conditions: Homo sapiens, SK-OV-3
A2780 (Ovarian) = test: Proliferation assay (MTT); format: cell-based; conditions: Homo sapiens, Table 2.1
Protocol: (§3) All cultures were supplemented with 10% FCS (fetal calf serum CSL, Australia), penicillin (100 U/ml), streptomycin ([…]), L-glutamine (2 mM) and sodium bicarbonate (1.2 g/L), and cultured at 37° C. in a humidified atmosphere of 5% CO2. All cell lines were purchased from ATCC (Maryland, USA) except where noted.
as §2

CCRF-CEM (Leukemic) = test: Proliferation assay (MTT); format: cell-based; conditions: Homo sapiens; Table 2.1; Leukemic CCRF-CEM
Protocol: as §3, §2

DU145 (Prostate) = test: Proliferation assay (MTT); format: cell-based; conditions: Homo sapiens, DU-145, Table 2.1
Protocol: as §3, §2

HCT-15 (Colorectal) = test: Proliferation assay (MTT); format: cell-based; conditions: Homo sapiens; Table 2.1; Colorectal HCT-15
Protocol: as §3, §2

HT-29 (Colorectal) = test: Proliferation assay (MTT); format: cell-based; conditions: Homo sapiens; Table 2.1; Colorectal HT-29
Protocol: as §3, §2

HTB-138 (Glioma) = test: Proliferation assay (MTT); format: cell-based; conditions: Table 2.1; Glioma HTB-138
Protocol: as §3, §2

LNCaP (Prostate) = test: Proliferation assay (MTT); format: cell-based; conditions: Homo sapiens, Table 2.1
Protocol: as §3, §2

[4] = test system: MCF-7 breast cancer cell line; test: Proliferation assay (MTT); format: cell-based; conditions: Homo sapiens, MCF7; Table 2.1; Breast MCF-7
Protocol: as §3, §2

MM96L melanoma cell line = test: Proliferation assay (MTT); format: cell-based; conditions: Homo sapiens, Table 15
Protocol: as §3, §2

NCI-H23 (Lung) = test: Proliferation assay (MTT); format: cell-based; conditions: Homo sapiens, Table 2.1
Protocol: as §3, §2

NCI-H460 (Lung) = test: Proliferation assay (MTT); format: cell-based; conditions: Homo sapiens; Table 2.1; Lung NCI-H460
Protocol: as §3, §2

[5] = test system: PC3 prostate cancer cell line; test: Proliferation assay (MTT); format: cell-based; conditions: Table 2.1
Protocol: as §3, §2

RPMI-8226 (Leukemic) = test: Proliferation assay (MTT); format: cell-based; conditions: Homo sapiens; Table 2.1; Leukemic RPMI-8226
Protocol: as §3, §2

[6] = test system: SKMe128 melanoma cell line; test: Proliferation assay (MTT); format: cell-based; conditions: Table 15
Protocol: as §3, §2

[7] = test system: MDA-MB-468 breast cancer cell line; test: Proliferation assay (MTT); format: cell-based; conditions: Homo sapiens, MDA-MB-468
[8] = test system: HPAC (CRL-2119) pancreatic cancer cell line; test: Proliferation assay (MTT); format: cell-based, human; conditions: Homo sapiens, HPAC
MM200 melanoma cell line = test: Proliferation assay (MTT); format: cell-based
[9] = DHE and HMC pharmacokinetics, oral, mice; format: in vivo, female BALB/c mice; conditions: for Free plasma concentration: 50 mg/kg p.o.
Protocol: HMC and DHE were prepared as homogenous suspensions in 1% CMC (m:v, water). Both formulations were delivered orally by gavage to female BALB/c mice at a dosage of 50 mg/kg. Three animals were allocated to each timepoint (15 min, 30 min, 1 hr, 4 hr and 24 hr). At each respective timepoint, animals were euthanased by cervical dislocation and blood collected. Free HMC was analysed by mass spectroscopy.

[10] = test system: MEL-RM melanoma cells (TRAIL sensitive); test: Apoptosis incidence in melanoma cells; format: cell-based
[11] = test system: ME4405 melanoma cells (TRAIL sensitive); test: Apoptosis incidence in melanoma cells; format: cell-based
[12] = test system: IGR3 melanoma cells (Trail-resistant); test: Apoptosis incidence in melanoma cells; format: cell-based
[13] = test system: Mel-AT melanoma cells (Trail +ve/Caspase 8 −ve); test: Apoptosis incidence in melanoma cells; format: cell-based
[14] = test system: TRAIL-sensitive and -resistant melanoma cells; test: Apoptosis incidence, statements over several melanoma cell lines; format: cell-based; conditions: 4 μM, 24 hr exposure, DHE-treated cells
[15] = test system: normal fibroblasts (MRC-5); test: Apoptosis in normal fibroblasts; format: cell-based; conditions: same concentration (8 μM) and exposure times (24 and 48 hr) as melanoma cells
Protocol: Studies were conducted on normal fibroblasts (MRC-5) and TRAIL-sensitive melanoma cells (ME4405 and MEL-RM) using 8 μM of either DHE, or HMC over 24 and 48 hr of exposure (FIG. 9).

Oc1ccc(C2=Cc3ccc(O)cc3OC2)cc1 [DHE, dehydroequol, reference compound]
IC50 ([1]; Homo sapiens, Fibroblast, NFF): > 150 µM
IC50 ([1]; Table 1, Neonatal Foreskin Fibroblasts (Human, NFF)): > 150 µM
IC50 (rabbit kidney cells (RK); Oryctolagus cuniculus, rabbit kidney cells): > 150 µM
IC50 (rabbit kidney cells (RK); Table 1, Rabbit Kidney): > 150 µM
IC50 [2]: 1.69 ± 0.62 µM
IC50 [3]: 21.8 ± 4.65 µM
IC50 (A2780 (Ovarian)): 1.7 ± 0.61 µM
IC50 (CCRF-CEM (Leukemic)): 1.7 ± 0.68 µM
IC50 (DU145 (Prostate)): 5.95 ± 1.5 µM
IC50 (HCT-15 (Colorectal)): 24.4 ± 12.6 µM
IC50 (HT-29 (Colorectal)): 50.5 ± 21.9 µM
IC50 (HTB-138 (Glioma)): 7.35 ± 0.89 µM
IC50 (LNCaP (Prostate)): 4.8 ± 3.8 µM
IC50 [4]: 21.5 ± 13.2 µM
IC50 (MM96L melanoma cell line): 4.76 µM
IC50 (NCI-H23 (Lung)): 8.75 ± 7.2 µM
IC50 (NCI-H460 (Lung)): 10.6 ± 3.8 µM
IC50 [5]: 9.09 ± 8.12 µM
IC50 (RPMI-8226 (Leukemic)): 3.72 ± 0.08 µM
IC50 [6]: 4.4 µM
IC50 [7]: 7.9 ± 3.5 µM
IC50 [8]: 56.6 ± 16.8 µM
IC50 (MM200 melanoma cell line; Table 2.1, Melanoma MM200): 2.9 µM
IC50 (MM200 melanoma cell line; Table 15, melanoma MM200, monotherapy): 4.77 ± 4 µM
Free plasma concentration ([9]; Time 0.25): 3300 ± 130 nM
Free plasma concentration ([9]; Time 0.5): 2900 ± 50 nM
Free plasma concentration ([9]; Time 1): 1500 ± 110 nM
Free plasma concentration ([9]; Time 4): 1300 ± 70 nM
Free plasma concentration ([9]; Time 24): 150 ± 40 nM
maximum plasma concentration of the free form ([9]; oral 50 mg/kg): 3.3 µM
ratio of free:total ([9]; oral 50 mg/kg): 0.64
time of maximum free concentration ([9]; oral 50 mg/kg): 15 min
Percent Apoptosis ([10]; 24 hr exposure, 1 uM): 0%
Percent Apoptosis ([10]; 24 hr exposure, 2 uM): 0%
Percent Apoptosis ([10]; 24 hr exposure, 4 uM): 0%
Percent Apoptosis ([10]; 24 hr exposure, 8 uM): 2%
Percent Apoptosis ([10]; 24 hr exposure, 20 uM): 5%
Percent Apoptosis ([10]; 48 hr exposure, 1 uM): 1%
Percent Apoptosis ([10]; 48 hr exposure, 2 uM): 1.5%
Percent Apoptosis ([10]; 48 hr exposure, 4 uM): 3%
Percent Apoptosis ([10]; 48 hr exposure, 8 uM): 10%
Percent Apoptosis ([10]; 48 hr exposure, 20 uM): 12%
Percent Apoptosis ([11]; 24 hr exposure, 1 uM): 0%
Percent Apoptosis ([11]; 24 hr exposure, 2 uM): 2%
Percent Apoptosis ([11]; 24 hr exposure, 4 uM): 2%
Percent Apoptosis ([11]; 24 hr exposure, 8 uM): 6%
Percent Apoptosis ([11]; 24 hr exposure, 20 uM): 11%
Percent Apoptosis ([11]; 48 hr exposure, 1 uM): 1%
Percent Apoptosis ([11]; 48 hr exposure, 2 uM): 3%
Percent Apoptosis ([11]; 48 hr exposure, 4 uM): 14%
Percent Apoptosis ([11]; 48 hr exposure, 8 uM): 40%
Percent Apoptosis ([11]; 48 hr exposure, 20 uM): 35%
Percent Apoptosis ([12]; 24 hr exposure, 1 uM): 0%
Percent Apoptosis ([12]; 24 hr exposure, 2 uM): 0%
Percent Apoptosis ([12]; 24 hr exposure, 4 uM): 1%
Percent Apoptosis ([12]; 24 hr exposure, 8 uM): 3%
Percent Apoptosis ([12]; 24 hr exposure, 20 uM): 4%
Percent Apoptosis ([12]; 48 hr exposure, 1 uM): 1%
Percent Apoptosis ([12]; 48 hr exposure, 2 uM): 1%
Percent Apoptosis ([12]; 48 hr exposure, 4 uM): 2%
Percent Apoptosis ([12]; 48 hr exposure, 8 uM): 8%
Percent Apoptosis ([12]; 48 hr exposure, 20 uM): 8%
Percent Apoptosis ([13]; 24 hr exposure, 1 uM): 0%
Percent Apoptosis ([13]; 24 hr exposure, 2 uM): 3%
Percent Apoptosis ([13]; 24 hr exposure, 4 uM): 4%
Percent Apoptosis ([13]; 24 hr exposure, 8 uM): 8%
Percent Apoptosis ([13]; 24 hr exposure, 20 uM): 10%
Percent Apoptosis ([13]; 48 hr exposure, 1 uM): 1.5%
Percent Apoptosis ([13]; 48 hr exposure, 2 uM): 5%
Percent Apoptosis ([13]; 48 hr exposure, 4 uM): 15%
Percent Apoptosis ([13]; 48 hr exposure, 8 uM): 43%
Percent Apoptosis ([13]; 48 hr exposure, 20 uM): 40%
incidence of apoptosis [14]: 0-1%
induction of apoptosis in normal fibroblasts [15]: do not induce apoptosis
